Results taken from US11618743B2, “Herbicidal compounds” (SYNGENTA PARTICIPATIONS AG, priority 2017, dated 2023).

Key:
Assay in all cases: Post-emergence efficacy, Method A
Assay type in all cases: in vivo
[1] = test system: Echinochloa crus-galli (ECHCG); conditions: Application rate 500 g/Ha, evaluated after 13 days; for Control of weed species after post-emergence application, ECHCG: 100=total damage to plant, 0=no damage; for Control of weed species ECHCG after post-emergence application (100=total damage to plant; 0=no damage to plant): Method A
Method in brief: (§1)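 Glasshouse post-emergence test: 14-day plants sprayed, then maintained at 24/16 °C day/night, 14 h photoperiod, 65% humidity. Evaluation at day 13 uses a percentage damage scale (100 = plant fully damaged).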

[2] = test system: Chenopodium album (CHEAL); conditions: Application rate 500 g/Ha, evaluated after 13 days; for Control of weed species after post-emergence application, CHEAL: 100=total damage to plant, 0=no damage; for Control of weed species CHEAL after post-emergence application (100=total damage to plant; 0=no damage to plant): Method A
Method in brief: as §1

[3] = test system: Euphorbia heterophylla (EPHHL); conditions: Application rate 500 g/Ha, evaluated after 13 days; for Control of weed species after post-emergence application, EPHHL: 100=total damage to plant, 0=no damage; for Control of weed species EPHHL after post-emergence application (100=total damage to plant; 0=no damage to plant): Method A
Method in brief: as §1

[4] = test system: Lolium perenne (LOLPE); conditions: Application rate 500 g/Ha, evaluated after 13 days; for Control of weed species after post-emergence application, LOLPE: 100=total damage to plant, 0=no damage; for Control of weed species LOLPE after post-emergence application (100=total damage to plant; 0=no damage to plant): Method A
Method in brief: as §1

[5] = test system: Eleusine indica (ELEIN); conditions: Application rate 500 g/Ha, evaluated after 13 days; for Control of weed species after post-emergence application, ELEIN: 100=total damage to plant, 0=no damage; for Control of weed species ELEIN after post-emergence application (100=total damage to plant; 0=no damage to plant): Method A
Method in brief: as §1

[6] = test system: Ipomoea hederacea (IPOHE); conditions: Application rate 500 g/Ha, evaluated after 13 days; for Control of weed species after post-emergence application, IPOHE: 100=total damage to plant, 0=no damage; for Control of weed species IPOHE after post-emergence application (100=total damage to plant; 0=no damage to plant): Method A
Method in brief: as §1

[7] = test system: Digitaria sanguinalis (DIGSA); conditions: Application rate 500 g/Ha, evaluated after 13 days; for Control of weed species after post-emergence application, DIGSA: 100=total damage to plant, 0=no damage; for Control of weed species DIGSA after post-emergence application (100=total damage to plant; 0=no damage to plant): Method A
Method in brief: as §1

[8] = test system: Amaranthus palmeri (AMAPA); conditions: Application rate 500 g/Ha, evaluated after 13 days; for Control of weed species after post-emergence application, AMAPA: 100=total damage to plant, 0=no damage; for Control of weed species AMAPA after post-emergence application (100=total damage to plant; 0=no damage to plant): Method A
Method in brief: as §1

[9] = test system: Setaria faberi (SETFA); conditions: Application rate 500 g/Ha, evaluated after 13 days; for Control of weed species after post-emergence application, SETFA: 100=total damage to plant, 0=no damage; for Control of weed species SETFA after post-emergence application (100=total damage to plant; 0=no damage to plant): Method A
Method in brief: as §1

Row | Structure (SMILES) | Control of weed species after post-emergence application, ECHCG [1] | Control of weed species after post-emergence application, CHEAL [2] | Control of weed species after post-emergence application, EPHHL [3] | Control of weed species after post-emergence application, LOLPE [4] | Control of weed species after post-emergence application, ELEIN [5] | Control of weed species after post-emergence application, IPOHE [6] | Control of weed species after post-emergence application, DIGSA [7] | Control of weed species after post-emergence application, AMAPA [8] | Control of weed species after post-emergence application, SETFA [9] | Control of weed species ECHCG after post-emergence application (100=total damage to plant; 0=no damage to plant) [1] | Control of weed species CHEAL after post-emergence application (100=total damage to plant; 0=no damage to plant) [2] | Control of weed species EPHHL after post-emergence application (100=total damage to plant; 0=no damage to plant) [3] | Control of weed species LOLPE after post-emergence application (100=total damage to plant; 0=no damage to plant) [4] | Control of weed species ELEIN after post-emergence application (100=total damage to plant; 0=no damage to plant) [5] | Control of weed species IPOHE after post-emergence application (100=total damage to plant; 0=no damage to plant) [6] | Control of weed species DIGSA after post-emergence application (100=total damage to plant; 0=no damage to plant) [7] | Control of weed species AMAPA after post-emergence application (100=total damage to plant; 0=no damage to plant) [8] | Control of weed species SETFA after post-emergence application (100=total damage to plant; 0=no damage to plant) [9]
1 | COP(=O)(C[n+]1ccc(-c2ncccn2)cn1)OC.O=S(=O)([O-])C(F)(F)F [Compound A238, 1-(dimethoxyphosphorylmethyl)-4-pyrimidin-2-yl-pyridazin-1-ium trifluoromethanesulfonate] | 40 | 20 | 50 | 10 | 30 | 40 | 50 | 50 | 50 |  |  |  |  |  |  |  |  | 
2 | COC(=O)C[n+]1ccc(-c2ncccn2)cn1.[Br-] [Compound A2, methyl 2-(4-pyrimidin-2-ylpyridazin-1-ium-1-yl)acetate bromide] |  |  |  |  |  |  |  |  |  | 50 | 20 | 90 | 0 | 30 | 10 | 40 | 60 | 80
3 | CCOP(=O)(CC[n+]1ccc(-c2ncccn2)cn1)OCC.O=C([O-])C(F)(F)F [Compound A124, 1-(2-diethoxyphosphorylethyl)-4-pyrimidin-2-yl-pyridazin-1-ium] |  |  |  |  |  |  |  |  |  | 0 | 0 | 0 | 0 | 0 | 0 | 10 | 0 | 20
4 | CCOP(=O)(CC[n+]1ccc(-c2cnccn2)cn1)OCC.O=C([O-])C(F)(F)F [Compound A8] |  |  |  |  |  |  |  |  |  | 10 | 10 | 10 | 0 | 20 | 10 | 20 | 10 | 20
5 | O=P([O-])(O)C[n+]1ccc(-c2ccncn2)cn1 [Compound A236] | 50 | 20 | 30 | 0 | 10 | 40 | 80 | 90 | 30 |  |  |  |  |  |  |  |  | 
6 | O=C(O)c1ccnc(-c2cc[n+](CCCS(=O)(=O)[O-])nc2)n1 [Compound A146] |  |  |  |  |  |  |  |  |  | 90 | 40 | 50 | 50 | 80 | 30 | 80 | 90 | 100
7 | O=S(=O)([O-])CC[n+]1ccc(-c2cccnc2)cn1 [Compound A179] | 40 | 30 | 60 | 10 | 50 | 20 | 50 | 30 | 60 |  |  |  |  |  |  |  |  | 
8 | Cc1n[n+](CCS(=O)(=O)[O-])ccc1-c1ncccn1 [Compound A88, 2-(3-methyl-4-pyrimidin-2-yl-pyridazin-1-ium-1-yl)ethanesulfonate] |  |  |  |  |  |  |  |  |  | 60 | 70 | 60 | 60 | 90 | 30 | 90 | 100 | 70
9 | CCOP(=O)(CCC[n+]1ccc(-c2ncccn2)cn1)OCC.O=C([O-])C(F)(F)F [Compound A204] | 0 | 20 | 0 | 0 | 0 | 0 | 0 | 10 | 0 |  |  |  |  |  |  |  |  | 
10 | N#Cc1cnc(-c2cc[n+](CCS(=O)(=O)[O-])nc2)nc1 [Compound A25] |  |  |  |  |  |  |  |  |  | 70 | 60 | 40 | 40 | 50 | 50 | 50 | 100 | 60
11 | N[C@@H](C[n+]1ccc(-c2ncccn2)cn1)C(=O)O [Compound A208, [(1S)-1-carboxy-2-(4-pyrimidin-2-ylpyridazin-1-ium-1-yl)ethyl]ammonium 2,2,2-trifluoroacetate] | 30 | 80 | 50 | 10 | 60 | 20 | 40 | 100 | 60 |  |  |  |  |  |  |  |  | 
12 | CCOP(=O)(O)CC[n+]1ccc(-c2ncccn2)cn1.O=C([O-])C(F)(F)F [Compound A113, ethoxy-[2-(4-pyrimidin-2-ylpyridazin-1-ium-1-yl)ethyl]phosphinate] |  |  |  |  |  |  |  |  |  | 60 | 90 | 100 | 10 | 40 | 60 | 60 | 40 | 50
13 | CCOP(=O)(C[n+]1ccc(-c2ncccn2)cn1)OCC.O=C([O-])C(F)(F)F [Compound A230, 1-(diethoxyphosphorylmethyl)-4-pyrimidin-2-yl-pyridazin-1-ium 2,2,2-trifluoroacetate] | 60 | 60 |  | 0 | 10 | 20 | 70 | 50 | 50 |  |  |  |  |  |  |  |  | 
